One may read the IC50 as the concentration needed to halve the response being measured.

This test deals with T1, human acetyl-CoA carboxylase 2 (ACC2) (Homo sapiens, UniProt O00763).
T1 construct: The cDNA encoding amino acids 144 to 2458 of human acetyl-CoA carboxylase 2; made in house; host or cells: Sf9 insect cells (baculovirus, pFastBac1)
T1 sequence (O00763 144-2458): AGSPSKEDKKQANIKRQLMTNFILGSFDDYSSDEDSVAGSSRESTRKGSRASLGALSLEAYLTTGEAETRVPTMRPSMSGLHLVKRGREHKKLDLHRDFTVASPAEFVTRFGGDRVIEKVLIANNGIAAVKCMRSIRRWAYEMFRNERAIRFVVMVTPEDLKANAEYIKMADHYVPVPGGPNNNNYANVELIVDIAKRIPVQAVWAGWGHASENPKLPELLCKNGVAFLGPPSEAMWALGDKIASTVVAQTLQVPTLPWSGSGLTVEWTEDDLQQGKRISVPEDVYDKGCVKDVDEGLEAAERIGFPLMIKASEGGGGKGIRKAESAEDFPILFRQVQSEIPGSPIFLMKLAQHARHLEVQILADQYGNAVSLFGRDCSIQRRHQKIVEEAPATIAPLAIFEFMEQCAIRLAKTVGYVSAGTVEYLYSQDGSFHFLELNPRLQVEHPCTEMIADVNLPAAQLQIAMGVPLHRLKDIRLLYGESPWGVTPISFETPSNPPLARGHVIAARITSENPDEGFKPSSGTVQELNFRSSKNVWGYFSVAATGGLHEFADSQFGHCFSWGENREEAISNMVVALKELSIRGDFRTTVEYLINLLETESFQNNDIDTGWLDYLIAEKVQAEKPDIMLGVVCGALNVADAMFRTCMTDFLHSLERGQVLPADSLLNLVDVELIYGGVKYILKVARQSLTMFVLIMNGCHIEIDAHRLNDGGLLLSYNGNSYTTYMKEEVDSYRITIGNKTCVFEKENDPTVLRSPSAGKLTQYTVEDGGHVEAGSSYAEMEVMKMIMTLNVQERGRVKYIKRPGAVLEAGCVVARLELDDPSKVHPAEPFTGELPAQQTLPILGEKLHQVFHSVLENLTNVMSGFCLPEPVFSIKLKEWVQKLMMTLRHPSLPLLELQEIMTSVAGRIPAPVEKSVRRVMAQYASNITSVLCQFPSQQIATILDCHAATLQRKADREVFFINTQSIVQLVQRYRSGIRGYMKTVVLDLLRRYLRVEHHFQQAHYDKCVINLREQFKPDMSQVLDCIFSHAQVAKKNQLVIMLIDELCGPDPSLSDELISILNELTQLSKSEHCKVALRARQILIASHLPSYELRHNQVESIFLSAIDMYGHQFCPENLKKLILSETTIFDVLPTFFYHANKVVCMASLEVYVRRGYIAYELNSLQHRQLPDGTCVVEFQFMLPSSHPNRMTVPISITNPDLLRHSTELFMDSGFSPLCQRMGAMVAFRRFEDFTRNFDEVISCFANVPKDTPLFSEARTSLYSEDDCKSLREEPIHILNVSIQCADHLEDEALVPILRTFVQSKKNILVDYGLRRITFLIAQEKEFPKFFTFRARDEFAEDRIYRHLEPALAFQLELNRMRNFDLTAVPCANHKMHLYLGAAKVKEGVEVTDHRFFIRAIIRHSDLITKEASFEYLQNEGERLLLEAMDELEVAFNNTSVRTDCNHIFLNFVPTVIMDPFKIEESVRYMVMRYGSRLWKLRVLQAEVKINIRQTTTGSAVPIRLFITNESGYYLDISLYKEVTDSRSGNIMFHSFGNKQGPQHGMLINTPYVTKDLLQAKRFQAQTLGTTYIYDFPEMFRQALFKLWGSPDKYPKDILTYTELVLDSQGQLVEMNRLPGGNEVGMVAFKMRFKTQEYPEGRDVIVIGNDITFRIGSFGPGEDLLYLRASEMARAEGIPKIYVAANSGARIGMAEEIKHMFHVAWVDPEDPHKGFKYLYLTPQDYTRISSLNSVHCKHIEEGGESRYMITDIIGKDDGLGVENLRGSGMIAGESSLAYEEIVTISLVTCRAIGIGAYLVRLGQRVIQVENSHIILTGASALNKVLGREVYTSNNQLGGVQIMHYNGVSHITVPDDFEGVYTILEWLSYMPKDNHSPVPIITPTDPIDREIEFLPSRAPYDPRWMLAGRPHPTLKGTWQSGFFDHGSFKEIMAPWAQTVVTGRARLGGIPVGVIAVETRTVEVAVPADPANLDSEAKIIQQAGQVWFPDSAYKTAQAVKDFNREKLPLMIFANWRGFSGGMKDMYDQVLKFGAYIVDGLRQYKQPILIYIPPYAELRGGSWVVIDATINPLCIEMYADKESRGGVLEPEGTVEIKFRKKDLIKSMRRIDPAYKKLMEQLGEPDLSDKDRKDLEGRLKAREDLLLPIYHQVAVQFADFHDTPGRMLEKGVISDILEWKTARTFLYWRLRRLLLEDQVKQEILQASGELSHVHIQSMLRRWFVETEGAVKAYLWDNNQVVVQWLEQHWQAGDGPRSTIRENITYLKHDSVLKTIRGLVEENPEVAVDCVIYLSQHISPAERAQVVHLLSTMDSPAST
The test is described as follows: Acetyl-CoA carboxylase enzyme assay (malonyl-CoA formation by LC/MS/MS). The format is biochemical. To be noted: recombinant human ACC2 (aa 144-2458); read-out: IC50 ACC2. The procedure, abridged:
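Malonyl-CoA formation was read by LC/MS/MS MRM against a [13C3]-malonyl-CoA internal standard, after acetic acid quench. The enzyme was baculovirus/Sf9-expressed human ACC2 residues 144–2458, given 15 minutes room-temperature compound preincubation in HEPES pH 7.5 buffer with MgCl2, citrate and DTT. Substrate solution held 50 μM acetyl-CoA, 120 μM ATP and 2 mM KHCO3.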
With `O=C([C@H]1CC[C@H](NS(=O)(=O)c2cnc3c(c2)NCCN3)CC1)N1CCOCC1c1ccccc1` (stereo partly drawn) [Example 194, N-((1r,4r)-4-(3-phenylmorpholine-4-carbonyl)cyclohexyl)-1,2,3,4-tetrahydropyrido[3,2-b]pyrazine-7-sulfonamide], the IC50 was 210 nM.

`C[C@@H](NC(=O)[C@H]1CC[C@H](NS(=O)(=O)c2ccc3c(c2)NC(=O)CC3(C)C)CC1)c1ccc(F)cc1` [Example 195, (1r,4R)-4-(4,4-dimethyl-2-oxo-1,2,3,4-tetrahydroquinoline-7-sulfonamido)-N-((R)-1-(4-fluorophenyl)ethyl)cyclohexanecarboxamide]: the IC50 worked out at 335 nM.

As for `C[C@@H](NC(=O)[C@H]1CC[C@H](NS(=O)(=O)c2ccc3c(c2)NCCC3(C)C)CC1)c1ccc(F)cc1` [Example 196, (1r,4R)-4-(4,4-dimethyl-1,2,3,4-tetrahydroquinoline-7-sulfonamido)-N-((R)-1-(4-fluorophenyl)ethyl)cyclohexanecarboxamide], the IC50 worked out at 220 nM.

Consider `C[C@@H](NC(=O)[C@]1(C)CC[C@@H](NS(=O)(=O)c2cnc3c(c2)NCCN3)CC1)c1ccc(F)cc1` [Example 197, (1r,4R)-N-((R)-1-(4-fluorophenyl)ethyl)-1-methyl-4-(1,2,3,4-tetrahydropyrido[3,2-b]pyrazine-7-sulfonamido)cyclohexanecarboxamide], for which the IC50 was found to be 40 nM.

Consider `C[C@H](NC(=O)[C@H]1CC[C@@H](NS(=O)(=O)c2cnc3c(c2)NCCN3)CC1)c1ccc(F)cc1` [Example 198, (1s,4S)-N-((R)-1-(4-fluorophenyl)ethyl)-4-(1,2,3,4-tetrahydropyrido[3,2-b]pyrazine-7-sulfonamido)cyclohexanecarboxamide], for which the IC50 is more than 35000 nM.

For the compound `[2H]C1([2H])Nc2cc(S(=O)(=O)NC3CCC(C(=O)N[C@H](C)c4ccc(F)cc4)CC3)cnc2NC1([2H])[2H]` (stereo partly drawn) [Example 199, (R)-N-(1-(4-fluorophenyl)ethyl)-4-(2,2,3,3-tetradeuterio-1,2,3,4-tetrahydropyrido[3,2-b]pyrazine-7-sulfonamido)cyclohexanecarboxamide], the IC50 was 75 nM.

As to `CC(C)COC(=O)N1CCNc2ncc(S(=O)(=O)N[C@H]3CC[C@H](C(=O)N[C@H](C)c4ccc(F)cc4)CC3)cc21` [Example 200, isobutyl 7-(N-((1R,4r)-4-((R)-1-(4-fluorophenyl)ethylcarbamoyl)cyclohexyl)sulfamoyl)-3,4-dihydropyrido[3,2-b]pyrazine-1(2H)-carboxylate], the half-maximal inhibitory concentration (IC50) was 60 nM.

Consider `COCCNc1ccc2cc(S(=O)(=O)N[C@H]3CC[C@H](C(=O)N[C@H](C)c4ccc(F)cc4)CC3)ccc2n1` [Example 201, (1r,4R)-N-((R)-1-(4-fluorophenyl)ethyl)-4-(2-(2-methoxyethylamino)quinoline-6-sulfonamido)cyclohexanecarboxamide], for which the IC50 worked out at 80 nM.

Regarding `C[C@@H](NC(=O)[C@H]1CC[C@H](NS(=O)(=O)c2ccc3nc(-c4ccccc4)ccc3c2)CC1)c1ccc(F)cc1` [Example 202, (1r,4R)-N-((R)-1-(4-fluorophenyl)ethyl)-4-(2-phenylquinoline-6-sulfonamido)cyclohexanecarboxamide], the IC50 was found to be 20 nM.

In the case of `C[C@@H](NC(=O)[C@H]1CC[C@H](NS(=O)(=O)c2ccc3nc(NCCC(=O)O)ccc3c2)CC1)c1ccc(F)cc1` [Example 203, 3-(6-(N-((1R,4r)-4-((R)-1-(4-fluorophenyl)ethylcarbamoyl)cyclohexyl)sulfamoyl)quinolin-2-ylamino)propanoic acid], the IC50 was 305 nM.

With `CCOc1ccc2cc(S(=O)(=O)N[C@H]3CC[C@H](C(=O)N4CCNCC4c4ccccc4)CC3)ccc2n1` (stereo partly drawn) [Example 204, 2-ethoxy-N-((1r,4r)-4-(2-phenylpiperazine-1-carbonyl)cyclohexyl)quinoline-6-sulfonamide], the IC50 amounted to 80 nM.

As for `CCOc1ccc2cc(S(=O)(=O)NC3CCC(C(=O)NC(CO)c4ccccc4)CC3)ccc2n1` [Example 205, (1r,4S)-4-(2-ethoxyquinoline-6-sulfonamido)-N-((S)-2-hydroxy-1-phenylethyl)cyclohexanecarboxamide], the IC50 was determined as 20 nM.

Regarding `CCOc1ccc2cc(S(=O)(=O)N[C@H]3CC[C@H](C(=O)N[C@@H](c4ccccc4)C(C)(C)O)CC3)ccc2n1` [Example 206, (1r,4S)-4-(2-ethoxyquinoline-6-sulfonamido)-N-((S)-2-hydroxy-2-methyl-1-phenylpropyl)cyclohexanecarboxamide], the IC50 was 20 nM.

`COCCNC(=O)c1ccc2cc(S(=O)(=O)N[C@H]3CC[C@H](C(=O)N[C@H](C)c4ccc(F)cc4)CC3)ccc2n1` [Example 207, 6-(N-((1R,4r)-4-((R)-1-(4-fluorophenyl)ethylcarbamoyl)cyclohexyl)sulfamoyl)-N-(2-methoxyethyl)quinoline-2-carboxamide]: the IC50 stood at 355 nM.

Take `CCOC(=O)N1CCNc2ncc(S(=O)(=O)N[C@H]3CC[C@H](C(=O)N[C@H](C)c4ccc(F)cc4)CC3)cc21` [Example 209, ethyl 7-(N-((1R,4r)-4-((R)-1-(4-fluorophenyl)ethylcarbamoyl)cyclohexyl)sulfamoyl)-3,4-dihydropyrido[3,2-b]pyrazine-1(2H)-carboxylate]: the IC50 worked out at 20 nM.

On to `C[C@@H](NC(=O)[C@H]1CC[C@H](NS(=O)(=O)c2cnc3c(c2)N(C(=O)OC2CCCCC2)CCN3)CC1)c1ccc(F)cc1` [Example 210, cyclohexyl 7-(N-((1R,4r)-4-((R)-1-(4-fluorophenyl)ethylcarbamoyl)cyclohexyl)sulfamoyl)-3,4-dihydropyrido[3,2-b]pyrazine-1(2H)-carboxylate], for which the IC50 is 225 nM.

In the case of `CCOc1ccc2cc(S(=O)(=O)N[C@H]3CC[C@H](C(=O)N[C@H](CC(=O)OC(C)(C)C)c4ccccc4)CC3)ccc2n1` [Example 211, (R)-tert-butyl 3-((1r,4R)-4-(2-ethoxyquinoline-6-sulfonamido)cyclohexanecarboxamido)-3-phenylpropanoate], the IC50 is 180 nM.

Regarding `CC(C)COC(=O)N1CCC(C)(C)c2ccc(S(=O)(=O)N[C@H]3CC[C@H](C(=O)N[C@H](C)c4ccc(F)cc4)CC3)cc21` [Example 212, isobutyl 7-(N-((1R,4r)-4-((R)-1-(4-fluorophenyl)ethylcarbamoyl)cyclohexyl)sulfamoyl)-4,4-dimethyl-3,4-dihydroquinoline-1(2H)-carboxylate], the IC50 stood at 165 nM.

With `C[C@@H](NC(=O)[C@H]1CC[C@H](NS(=O)(=O)c2ccc3nc(N4CCOCC4)ccc3c2)CC1)c1ccc(F)cc1` [Example 213, (1r,4R)-N-((R)-1-(4-fluorophenyl)ethyl)-4-(2-morpholinoquinoline-6-sulfonamido)cyclohexanecarboxamide], the IC50 was 95 nM.

Take `CC(C)COC(=O)N1CCN(C(=O)OCC(C)C)c2cc(S(=O)(=O)N[C@H]3CC[C@H](C(=O)N[C@H](C)c4ccc(F)cc4)CC3)ccc21` [Example 214, diisobutyl 6-(N-((1R,4r)-4-((R)-1-(4-fluorophenyl)ethylcarbamoyl)cyclohexyl)sulfamoyl)-2,3-dihydroquinoxaline-1,4-dicarboxylate]: the IC50 is 365 nM.

As to `C[C@@H](NC(=O)[C@H]1CC[C@H](NS(=O)(=O)c2ccc3nc(NCCN(C)C)ccc3c2)CC1)c1ccc(F)cc1` [Example 215, (1r,4R)-4-(2-(2-(dimethylamino)ethylamino)quinoline-6-sulfonamido)-N-((R)-1-(4-fluorophenyl)ethyl)cyclohexanecarboxamide], the IC50 stood at 125 nM.

Consider `C[C@@H](NC(=O)[C@H]1CC[C@H](NS(=O)(=O)c2ccc3nc(N4CCCCC4)ccc3c2)CC1)c1ccc(F)cc1` [Example 216, (1r,4R)-N-((R)-1-(4-fluorophenyl)ethyl)-4-(2-(piperidin-1-yl)quinoline-6-sulfonamido)cyclohexanecarboxamide], for which the IC50 worked out at 180 nM.

As to `CC(C)COC(=O)N1CCNc2ccc(S(=O)(=O)N[C@H]3CC[C@H](C(=O)N[C@H](C)c4ccc(F)cc4)CC3)cc21` [Example 217, isobutyl 7-(N-((1R,4r)-4-((R)-1-(4-fluorophenyl)ethylcarbamoyl)cyclohexyl)sulfamoyl)-3,4-dihydroquinoxaline-1(2H)-carboxylate], the IC50 came out at 15 nM.

For the compound `C[C@@H](NC(=O)[C@H]1CC[C@H](NS(=O)(=O)c2ccc3nc(-c4cccnc4)ccc3c2)CC1)c1ccc(F)cc1` [Example 218, (1r,4R)-N-((R)-1-(4-fluorophenyl)ethyl)-4-(2-(pyridin-3-yl)quinoline-6-sulfonamido)cyclohexanecarboxamide], the IC50 worked out at 20 nM.

Turning to `C[C@@H](NC(=O)[C@H]1CC[C@H](NS(=O)(=O)c2ccc3nc(CCC(=O)O)ccc3c2)CC1)c1ccc(F)cc1` [Example 219, 3-(6-(N-((1R,4r)-4-((R)-1-(4-fluorophenyl)ethylcarbamoyl)cyclohexyl)sulfamoyl)quinolin-2-yl)propanoic acid], the IC50 was 495 nM.

For `CC(C)CCC(=O)N1CCNc2ncc(S(=O)(=O)N[C@H]3CC[C@H](C(=O)N[C@H](C)c4ccc(F)cc4)CC3)cc21` [Example 220, (1r,4R)-N-((R)-1-(4-fluorophenyl)ethyl)-4-(1-(4-methylpentanoyl)-1,2,3,4-tetrahydropyrido[3,2-b]pyrazine-7-sulfonamido)cyclohexanecarboxamide], the IC50 amounted to 875 nM.

For the compound `COC(=O)N1CCNc2ccc(S(=O)(=O)NC3CCC(C(=O)NC(C)c4ccc(F)cc4)CC3)cc21` [Example 221, methyl 7-(N-((1R,4r)-4-((R)-1-(4-fluorophenyl)ethylcarbamoyl)cyclohexyl)sulfamoyl)-3,4-dihydroquinoxaline-1(2H)-carboxylate], the IC50 was less than 10 nM.
